Experimental data: BindingDB's records for doi:10.1021/acs.jmedchem.8b00277 (2018)

Experiment: Inhibition of HIV1 NL4-3 protease assessed as decrease in viral replication in human MT2 cells after 4 days by luciferase reporter gene assay

| EC50 | Structure (SMILES) |
| --- | --- |
| 5.3 nM | COC(=O)N[C@H](C(=O)NN(Cc1ccc(-c2ccccn2)cc1)C[C@H](OC(=O)[C@@H](NC(=O)OC)C(C)(C)C)[C@H](Cc1ccccc1)NC(=O)OC(OC(=O)[C@@H](N)C(C)C)C(C)C)C(C)(C)C (stereo partly drawn) |
| 1.8 nM | COC(=O)N[C@H](C(=O)NN(Cc1ccc(-c2ccccn2)cc1)C[C@H](OC(=O)[C@@H](NC(=O)OC)C(C)(C)C)[C@@H](N)Cc1ccccc1)C(C)(C)C |
| 0.7 nM | COC(=O)N[C@H](C(=O)N[C@@H](Cc1ccccc1)[C@@H](O)CN(Cc1ccc(-c2ccccn2)cc1)NC(=O)[C@@H](NC(=O)OC)C(C)(C)C)C(C)(C)C [CGP 73547] |
